Measured values as given in US20200102264A1, “MARMELIN ANALOGS AND METHODS OF USE IN CANCER TREATMENT” (THE UNIVERSITY OF KANSAS, priority 2014, published 2020).
Entries after “also recorded” stand apart in the source; their conditions may differ. Each block holds one compound with its values, some of them ahead of it.

Tests used:
Format in all cases: cell-based
[1] = test system: colon, pancreatic and bladder cancer cells; test: hexoseaminidase cell proliferation assay, summaries over cell lines; details: dose and time dependent
Method: Water solubility studies were performed with the CD/analog complexes. […] The observed IC50 value of THBCD at 48 h is below 10 μM in all the colon, pancreatic and bladder cancer cells.
(§1) Using hexoseaminidase assay, we determined the effect of the compounds on cell proliferation. […] The IC50 value at 48 hours is below 10 μM in all the cancer cell lines.
(§2) Using hexoseaminidase assay, we determined the effect of the compounds on cell proliferation. […] The MRL16 IC50 value at 48 hours is below 0.3 μM in Colon cancer cell lines. […] Overall, the analogs can be used as chemotherapeutic agents against colon and pancreatic cancer.

HCT116 cells [2] = test: cell cycle analysis, HCT116
[3] = test system: PanC-1 pancreatic cancer cells; test: hexoseaminidase cell proliferation assay, PanC-1
Method: as §1, §2

SW480 cells [4] = test: cell cycle analysis, SW480
Method: The analogs were tested to determine the ability induce death of colon cancer cells.

HCT116 cells [5] = test: colony formation, HCT116
SW480 colon cancer cells = test: hexoseaminidase cell proliferation assay, SW480
Text: (§3) Using hexoseaminidase assay, we determined the effect of the compounds on cell proliferation. […]
(§4) Using hexoseaminidase assay, we determined the effect of the compounds on cell proliferation. […] […] […] Overall, the analogs can be used as chemotherapeutic agents against colon and pancreatic cancer.

HCT116 cells [6] = test: colonosphere formation, HCT116
Text: These compounds may be preferred in some instances.

[7] = test system: HCT116 colon cancer cells; test: hexoseaminidase cell proliferation assay, HCT116
Text: as §3, §4

[8] = test system: MiaPaCa-2 pancreatic cancer cells; test: hexoseaminidase cell proliferation assay, MiaPaCa-2
Method: as §1, §2

SW480 cells [9] = test: colony formation, SW480
cancer stem cells = test: colonosphere formation
Method: It was also determined the analogs inhibit colonosphere formation from cancer stem cells. […] The columns are 0, 10, 25, and 50 micromolar concentrations of the compounds labeled by rows.
The effect of the compounds on colonosphere formation was determined. […] Overall, the analogs have shown they can be used as chemotherapeutic agents against colon, pancreatic and bladder cancer.

MiaPaCa-2 cells = test: colony formation, MiaPaCa-2
PanC-1 cells = test: colony formation, PanC-1

IC50 ([3]; Homo sapiens, PANC-1, 24 h): > 10 µM
IC50 ([3]; Homo sapiens, PANC-1, 48 h): 3 µM
IC50 ([3]; Homo sapiens, PANC-1, 72 h): 1 µM
IC50 (SW480 colon cancer cells; Homo sapiens, SW480, 24 h): > 2 µM
IC50 (SW480 colon cancer cells; Homo sapiens, SW480, 48 h): 1 µM
IC50 (SW480 colon cancer cells; Homo sapiens, SW480, 72 h): 0.6 µM
IC50 ([7]; Homo sapiens, HCT-116, HCT116, 24 h): > 2 µM
IC50 ([7]; Homo sapiens, HCT-116, HCT116, 48 h): 1 µM
IC50 ([7]; Homo sapiens, HCT-116, HCT116, 72 h): 0.8 µM
IC50 ([8]; Homo sapiens, MIA PaCa-2, MiaPaCa-2, 24 h): > 10 µM
IC50 ([8]; Homo sapiens, MIA PaCa-2, MiaPaCa-2, 48 h): > 10 µM
IC50 ([8]; Homo sapiens, MIA PaCa-2, MiaPaCa-2, 72 h): 5 µM
SMILES: C/C(=N\NC(=O)c1cccnc1)c1ccc2ccccc2c1O [MRL17]
inhibition of cell proliferation (in words) [1]: potent inhibitor
G0/G1 (%) (HCT116 cells [2]; HCT116, 24 h): 63.9%
G2/M (%) (HCT116 cells [2]; HCT116, 24 h): 20.9%
S (%) (HCT116 cells [2]; HCT116, 24 h): 14.0%
SubG0 Dead Cells (%) (HCT116 cells [2]; HCT116, 24 h): 0.99%
G0/G1 (%) (HCT116 cells [2]; HCT116, 48 h): 63.1%
G2/M (%) (HCT116 cells [2]; HCT116, 48 h): 20.8%
S (%) (HCT116 cells [2]; HCT116, 48 h): 14.3%
SubG0 Dead Cells (%) (HCT116 cells [2]; HCT116, 48 h): 1.57%
cell cycle effect (in words) (HCT116 cells [2]; HCT116 cells): induces G2/M arrest
G0/G1 (%) (SW480 cells [4]; SW480, 24 h): 54.9%
G2M/ (%) (SW480 cells [4]; SW480, 24 h): 22.0%
S (%) (SW480 cells [4]; SW480, 24 h): 22.3%
SubG0 Dead Cells (%) (SW480 cells [4]; SW480, 24 h): 0.50%
cell cycle effect (in words) (SW480 cells [4]; SW480, 24 h): induces G1 arrest
G0/G1 (%) (SW480 cells [4]; SW480, 48 h): 59.3%
G2M/ (%) (SW480 cells [4]; SW480, 48 h): 18.3%
S (%) (SW480 cells [4]; SW480, 48 h): 20.8%
SubG0 Dead Cells (%) (SW480 cells [4]; SW480, 48 h): 1.12%
cell cycle effect (in words) (SW480 cells [4]; SW480, 48 h): S-phase arrest
colony formation (HCT116 cells [5]): inhibit colony formation
colonosphere formation (HCT116 cells [6]): inhibits colonosphere formation

IC50 ([3]; PanC-1, 24 h): > 50 µM
IC50 ([3]; PanC-1, 48 h): 15 µM
IC50 ([3]; PanC-1, 48 h, listed as DHB): 10 µM
IC50 ([3]; PanC-1, 72 h): 8 µM
IC50 (SW480 colon cancer cells; SW480, 24 h): > 50 µM
IC50 (SW480 colon cancer cells; SW480, 48 h): > 50 µM
IC50 (SW480 colon cancer cells; SW480, 72 h): 15 µM
IC50 ([7]; HCT116, 24 h): > 50 µM
IC50 ([7]; HCT116, 48 h): > 50 µM
IC50 ([8]; MiaPaCa-2, 24 h): > 50 µM
IC50 ([8]; MiaPaCa-2, 48 h): 25 µM
IC50 ([8]; MiaPaCa-2, 72 h): 10 µM
IC50 ([8]; MiaPaCa-2, 72 h, listed as DHB): 25 µM
SMILES: O=C(N/N=C/c1ccc(O)c(O)c1)c1cc2ccccc2cc1O [MRL DHB]
inhibition of cell proliferation (in words) [1]: potent inhibitor of proliferation of pancreatic cancer cells; also recorded: inhibit proliferation
G0/G1 (%) (HCT116 cells [2]; HCT116, Table 3): 40.7%
G2M (%) (HCT116 cells [2]; HCT116, Table 3): 10.4%
S (%) (HCT116 cells [2]; HCT116, Table 3): 13.0%
SubG0 Dead Cells (%) (HCT116 cells [2]; HCT116, Table 3): 34.2%
colony formation (SW480 cells [9]): significantly inhibited colony formation
G0/G1 (%) (SW480 cells [4]; SW480, Table 3): 60.7%
G2M (%) (SW480 cells [4]; SW480, Table 3): 18.4%
S (%) (SW480 cells [4]; SW480, Table 3): 14.1%
SubG0 Dead Cells (%) (SW480 cells [4]; SW480, Table 3): 6.1%
colony formation (HCT116 cells [5]): significantly inhibited colony formation
colonosphere formation (cancer stem cells): significantly inhibited colonosphere formation

IC50 ([3]; PanC-1, 24 h): > 50 µM
IC50 ([3]; PanC-1, 48 h): 10 µM
IC50 ([3]; PanC-1, 72 h): 8 µM
IC50 (SW480 colon cancer cells; SW480, 24 h): > 50 µM
IC50 (SW480 colon cancer cells; SW480, 48 h): > 50 µM
IC50 (SW480 colon cancer cells; SW480, 72 h): 8 µM
IC50 ([7]; HCT116, 24 h): 25 µM
IC50 ([7]; HCT116, 48 h): 8 µM
IC50 ([7]; HCT116, 72 h): 6 µM
IC50 ([8]; MiaPaCa-2, 24 h): > 50 µM
IC50 ([8]; MiaPaCa-2, 48 h): > 50 µM
IC50 ([8]; MiaPaCa-2, 72 h): 8 µM
SMILES: O=C(N/N=C/c1ccccc1O)c1cc2ccccc2cc1O [SAL]
colony formation (MiaPaCa-2 cells): inhibit colony formation
colony formation (SW480 cells [9]): inhibit colony formation
colony formation (HCT116 cells [5]): inhibit colony formation
colony formation (PanC-1 cells): inhibit colony formation
colonosphere formation (cancer stem cells): potent inhibitors of colonosphere formation
